Reference: PubChem BioAssay AID1259408 (Genetic Toxicology Data Bank (GENE-TOX), 2018)
Calls of active or inactive are those of the source. How the calls were made is not given here. Numbered stars: 1 amine (or outer) side, 2 acyl side, 3 side chain; on linkers, the order of the positions; unused ones are H or OH. Bridge positions count the residues as written; N and C are the ends. Square brackets hold non-standard residues; d marks the D form. Peptide text beside a SMILES is read from it. I, II: the chains in the order shown. Actinocin(9to1) = Cc1c2oc3c(C)ccc(C(=O)[*:1])c3nc-2c(C(=O)[*:2])c(N)c1=O; NMeV = CN[C@H](C(=O)O)C(C)C; Sar = CNCC(=O)O

Tested on: GENE-TOX genotoxicity assays, various organisms and cells
Assay: GENE-TOX mutagenicity studies
Details: for call: Assay Type: In vivo carcinogenicity studies
[1] = Species/Cell Type: Chinese hamster lung (V79) cells, Assay Type: Forward gene mutation at the HPRT or ouabain locus, Assay Code: V79-, Evaluation Type: Evaluation A (Pre-1980)
[2] = Species/Cell Type: Drosophila melanogaster, Assay Type: Sex-linked recessive lethal gene mutation, Assay Code: SRLT, Evaluation Type: Evaluation A (Pre-1980)
[3] = Species/Cell Type: Saccharomyces cerevisiae, Assay Type: Mitotic recombination or gene conversion, Assay Code: YEC+, Evaluation Type: Evaluation A (Pre-1980)
[4] = Species/Cell Type: Salmonella typhimurium (one or more of the five standard strains: TA98, TA100, TA1535, TA1537, and TA1538), Assay Type: Histidine reverse gene mutation, Ames assay, Assay Code: SAL+, Evaluation Type: Evaluation A (Pre-1980)
[5] = Species/Cell Type: Drosophila melanogaster, Assay Type: Sex-linked recessive lethal gene mutation, Assay Code: SRL+, Evaluation Type: Evaluation A (Pre-1980)
[6] = Species/Cell Type: Salmonella typhimurium (one or more of the five standard strains: TA98, TA100, TA1535, TA1537, and TA1538), Assay Type: Histidine reverse gene mutation, Ames assay, Assay Code: SALT, Evaluation Type: Evaluation A (Pre-1980)
[7] = Species/Cell Type: Syrian hamster embryo (SA7/SHE) cells, Assay Type: Cell transformation, viral enhanced, Assay Code: CT7-, Evaluation Type: Evaluation A (Pre-1980)

Cc1c2oc3c(C)ccc(C(=O)N[C@@H]4C(=O)N[C@H](C(C)C)C(=O)N5CCC[C@H]5C(=O)N(C)CC(=O)N(C)[C@@H](C(C)C)C(=O)O[C@@H]4C)c3nc-2c(C(=O)N[C@@H]2C(=O)N[C@H](C(C)C)C(=O)N3CCC[C@H]3C(=O)N(C)CC(=O)N(C)[C@@H](C(C)C)C(=O)O[C@@H]2C)c(N)c1=O (I: T[dV]P[Sar][NMeV] / II: T[dV]P[Sar][NMeV]; ester I:1-I:C, II:1-II:C; linker I:N-II:N via Actinocin(9to1))
mutagenic call (Species/Cell Type: Allium cepa, Assay Type: Chromosome aberrations, Assay Code: ALC+, Evaluation Type: Evaluation A (Pre-1980)): active; positive | mutagenic call [1]: inactive; negative | mutagenic call (Species/Cell Type: Chinese hamster ovary (CHO) cells, Assay Type: Forward gene mutation at the HPRT locus, Assay Code: CHO+, Evaluation Type: Evaluation B (Post-1980)): active; positive | mutagenic call (Species/Cell Type: Drosophila melanogaster, Assay Type: Aneuploidy, sex chromosome gain, chromosome aberrations, Assay Code: DAG+F, Evaluation Type: Evaluation A (Pre-1980)): active; positive | mutagenic call (Species/Cell Type: Drosophila melanogaster, Assay Type: Aneuploidy, whole sex chromosome loss, chromosome aberrations, Assay Code: DAC+F, Evaluation Type: Evaluation A (Pre-1980)): active; positive | mutagenic call [2]: no conclusion | mutagenic call (Species/Cell Type: Escherichia coli polA (W3119 vs P3478), Assay Type: Rec-assay, DNA effects (bacterial DNA repair), Assay Code: RE1T, Evaluation Type: Evaluation A (Pre-1980)): no conclusion | mutagenic call (Species/Cell Type: Glycine max (soybean), Assay Type: Gene mutation, Assay Code: GLM+, Evaluation Type: Evaluation A (Pre-1980)): active; positive | mutagenic call (Species/Cell Type: Human cell culture, Assay Type: Chromosome aberrations in vitro, Assay Code: CYZ+D, Dose Response: With dose response, Evaluation Type: Evaluation A (Pre-1980)): active; positive | mutagenic call (Species/Cell Type: Human lymphocytes, Assay Type: Sister-chromatid exchange (SCE) in vivo, Assay Code: SCY+, Evaluation Type: Evaluation B (Post-1980)): active; positive | mutagenic call (Species/Cell Type: Mammalian polychromatic erythrocytes, Assay Type: Micronucleus test, chromosome aberrations, Assay Code: MNTT, Evaluation Type: Evaluation A (Pre-1980)): no conclusion | mutagenic call (Species/Cell Type: Mouse (C3H/10T1/2) cells, Assay Type: Cell transformation, Assay Code: CTH+, Evaluation Type: Evaluation A (Pre-1980)): active; positive | mutagenic call (Species/Cell Type: Mouse, Sex: Male, Assay Type: Sperm morphology, Assay Code: SPI+, Evaluation Type: Evaluation A (Pre-1980)): active; positive | mutagenic call (Species/Cell Type: Neurospora crassa, Assay Type: Forward gene mutation, Assay Code: NEF+, Evaluation Type: Evaluation A (Pre-1980)): active; positive | mutagenic call (Species/Cell Type: Nonhuman, Assay Type: Chromosome aberrations in vitro, Assay Code: CY&+, Evaluation Type: Evaluation A (Pre-1980)): active; positive | call (Species/Cell Type: Nonhuman, Assay Code: CCG+L, Evaluation Type: Evaluation A (Pre-1980)): active; positive | mutagenic call (Species/Cell Type: Nonhuman, Assay Type: Sister-chromatid exchange (SCE) in vitro, Assay Code: SC2+, Evaluation Type: Evaluation A (Pre-1980)): active; positive | mutagenic call (Species/Cell Type: Nonhuman, Assay Type: Sister-chromatid exchange (SCE) in vivo, Assay Code: SC3+, Evaluation Type: Evaluation B (Post-1980)): active; positive | mutagenic call (Species/Cell Type: Saccharomyces cerevisiae, Assay Type: Forward gene mutation, Assay Code: YEFT, Evaluation Type: Evaluation A (Pre-1980)): no conclusion

C[CH2][Hg][S]c1ccccc1C(=O)O
mutagenic call [3]: active; positive

O=C(O)Cc1ccccc1[N+](=O)[O-]
mutagenic call [4]: active; positive

CN(C)N=Nc1ccc(Br)cc1
mutagenic call [5]: active; positive | mutagenic call (Species/Cell Type: Mammalian polychromatic erythrocytes, Assay Type: Micronucleus test, chromosome aberrations, Assay Code: MNT+, Evaluation Type: Evaluation A (Pre-1980)): active; positive | mutagenic call [3]: active; positive

CCCCN(N=O)C(N)=O
mutagenic call (Species/Cell Type: Arabidopsis species, Assay Type: Gene mutation, Assay Code: ARM+D, Dose Response: With dose response, Evaluation Type: Evaluation A (Pre-1980)): active; positive | mutagenic call (Species/Cell Type: Chinese hamster ovary (CHO) cells, Assay Type: Forward gene mutation at the HPRT locus, Assay Code: CHO+D, Dose Response: With dose response, Evaluation Type: Evaluation A (Pre-1980)): active; positive | mutagenic call (Species/Cell Type: Human diploid fibroblasts, Assay Type: Unscheduled DNA synthesis (UDS) in vitro, DNA effects, Assay Code: UDH-, Evaluation Type: Evaluation A (Pre-1980)): inactive; negative | mutagenic call (Species/Cell Type: Nonhuman, Assay Type: Chromosome aberrations in vitro, Assay Code: CY&+D, Dose Response: With dose response, Evaluation Type: Evaluation A (Pre-1980)): active; positive | call (Species/Cell Type: Nonhuman, Assay Code: CCG+, Evaluation Type: Evaluation A (Pre-1980)): active; positive | mutagenic call (Species/Cell Type: Nonhuman, Assay Type: Sister-chromatid exchange (SCE) in vitro, Assay Code: SC2+D, Dose Response: With dose response, Evaluation Type: Evaluation A (Pre-1980)): active; positive | mutagenic call (Species/Cell Type: Rodents, Sex: Male, Assay Type: Dominant lethal test, Assay Code: DLT-, Evaluation Type: Evaluation A (Pre-1980)): inactive; negative | mutagenic call [3]: active; positive | mutagenic call (Species/Cell Type: Salmonella typhimurium, Escherichia coli, Serratia marcesens, Assay Type: Forward and reverse gene mutation, host-mediated assay, Assay Code: HMN+, Evaluation Type: Evaluation A (Pre-1980)): active; positive

c1ccc2cnccc2c1
mutagenic call [6]: no conclusion

Cc1ccc2cc3c(cc(-c4ccccc4O)c4ccccc43)c3c2c1CC3
mutagenic call [1]: inactive; negative

CC=Cc1ccccc1O
mutagenic call (Species/Cell Type: Human lymphocytes, Assay Type: Sister-chromatid exchange (SCE) in vitro, Assay Code: SCL+D, Dose Response: With dose response, Evaluation Type: Evaluation B (Post-1980)): active; positive | mutagenic call (Species/Cell Type: Human, Assay Type: Sister-chromatid exchange (SCE) in vitro, Assay Code: SC1+D, Dose Response: With dose response, Evaluation Type: Evaluation B (Post-1980)): active; positive

CCCCCCC(=O)N(C)N=O
mutagenic call (Species/Cell Type: Saccharomyces cerevisiae, Assay Type: Reverse gene mutation, Assay Code: YER+, Evaluation Type: Evaluation A (Pre-1980)): active; positive

[Cl][W]([Cl])([Cl])([Cl])([Cl])[Cl]
mutagenic call [7]: inactive; negative

Nc1nc(=O)n([C@H]2C[C@H](O)[C@@H](CO)O2)cc1Br
mutagenic call (Species/Cell Type: Arabidopsis species, Assay Type: Gene mutation, Assay Code: ARM+, Evaluation Type: Evaluation A (Pre-1980)): active; positive | mutagenic call [2]: no conclusion | mutagenic call (Species/Cell Type: Human lymphocytes, Assay Type: Sister-chromatid exchange (SCE) in vitro, Assay Code: SCLT, Evaluation Type: Evaluation B (Post-1980)): no conclusion | mutagenic call (Species/Cell Type: Human, Assay Type: Sister-chromatid exchange (SCE) in vitro, Assay Code: SC1T, Evaluation Type: Evaluation B (Post-1980)): no conclusion | mutagenic call (Species/Cell Type: Syrian hamster embryo (SA7/SHE) cells, Assay Type: Cell transformation, viral enhanced, Assay Code: CT7+, Evaluation Type: Evaluation A (Pre-1980)): active; positive

Nc1ncnc2c1ncn2[C@@H]1O[C@H](COP(=O)(O)OP(=O)(O)OP(=O)(O)O)[C@@H](O)[C@H]1O
mutagenic call (Species/Cell Type: Drosophila melanogaster, Assay Type: Aneuploidy, whole sex chromosome loss, chromosome aberrations, Assay Code: DAC-M, Evaluation Type: Evaluation A (Pre-1980)): inactive; negative

Clc1ccc(Cl)c(-c2cc(Cl)ccc2Cl)c1
mutagenic call [6]: no conclusion

CCc1ccccc1
mutagenic call (Species/Cell Type: Human lymphocytes, Assay Type: Sister-chromatid exchange (SCE) in vitro, Assay Code: SCL+, Evaluation Type: Evaluation B (Post-1980)): active; positive | mutagenic call (Species/Cell Type: Human, Assay Type: Sister-chromatid exchange (SCE) in vitro, Assay Code: SC1+, Evaluation Type: Evaluation B (Post-1980)): active; positive | mutagenic call [7]: inactive; negative

CCCCOC(=O)COc1cc(Cl)c(Cl)cc1Cl
mutagenic call (Species/Cell Type: Salmonella typhimurium, Serratia marcesens, Assay Type: Forward and reverse gene mutation, host-mediated assay, Assay Code: HM2T, Evaluation Type: Evaluation A (Pre-1980)): no conclusion

Cc1ccc2c(c1[N+](=O)[O-])C(=O)c1cccc([N+](=O)[O-])c1C2=O
mutagenic call [4]: active; positive

O=S(=O)(O)c1ccc2c(N=Nc3ccc(S(=O)(=O)O)c4ccccc34)c(O)ccc2c1
mutagenic call (Species/Cell Type: Saccharomyces cerevisiae, Assay Type: Mitotic recombination or gene conversion, Assay Code: YEC-, Evaluation Type: Evaluation A (Pre-1980)): inactive; negative

Cc1ccc(N2CC[N+](C)([O-])CC2)c2c(=O)c3ccc(Cl)cc3sc12
mutagenic call [6]: no conclusion

O=S(=O)(O)c1ccc(O)c(N=Nc2c(O)ccc3ccccc23)c1
mutagenic call [6]: no conclusion

Cc1ccc2cc3c(c4c2c1CC4)C1OC1c1ccccc1-3 (stereo unspecified)
mutagenic call (Species/Cell Type: Chinese hamster lung (V79) cells, Assay Type: Forward gene mutation at the HPRT or ouabain locus, Assay Code: V79+, Evaluation Type: Evaluation A (Pre-1980)): active; positive | mutagenic call [5]: active; positive | mutagenic call (Species/Cell Type: Mouse prostate cells, Assay Type: Cell transformation, Assay Code: CTM+, Evaluation Type: Evaluation A (Pre-1980)): active; positive | call (Species/Cell Type: Nonhuman, Assay Code: CCGT, Evaluation Type: Evaluation A (Pre-1980)): no conclusion | mutagenic call (Species/Cell Type: Syrian hamster embryo (SHE) cells, Assay Type: Cell transformation, clonal assay, Assay Code: CTC+, Evaluation Type: Evaluation A (Pre-1980)): active; positive

CN(N=O)C1=Nc2ccc(Cl)cc2C(c2ccccc2)=[N+]([O-])C1
mutagenic call (Species/Cell Type: Saccharomyces cerevisiae, Assay Type: Mitotic recombination or gene conversion, Assay Code: YEC+*, Activation: With metabolic activation, Evaluation Type: Evaluation A (Pre-1980)): active; positive | mutagenic call (Species/Cell Type: Salmonella typhimurium, Assay Type: Forward and reverse gene mutation, host-mediated assay, Assay Code: HMA+, Evaluation Type: Evaluation A (Pre-1980)): active; positive
